From patent US10259810B2, “N-sulfonylated pyrazolo[3,4-b]pyridin-6-carboxamides and method of use” (AbbVie S.à.r.l., priority 2015, dated 2019)
pEC50: −log10 of the molar value.

How the values were obtained:
[1] = molecular target: T1, ΔF508-CFTR (Homo sapiens, UniProt P13569, DEL508-508); assay: CFTR cell surface levels using HRP-tagged ΔF508-CFTR expressing CFBE cells, intrinsic corrector capacity; format: cell-based; parameters: % Activation: concentration or dose not given beside the values
T1 construct: host or cells: CFBE41o-, doxycycline-inducible
How it was run: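 Read-out: chemiluminescent HRP activity of ECL4-HRP-tagged ΔF508-CFTR at the cell surface, 15 min substrate in dark. Normalized as 100×(sample−DMSO)/(positive control−DMSO).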

[2] = molecular target: T1, ΔF508-CFTR; assay: CFTR cell surface levels using HRP-tagged ΔF508-CFTR expressing CFBE cells, in the presence of a co-corrector; format: cell-based
How it was run: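 Chemiluminescent read-out of surface HRP (15 min, dark) after PBS washes. Activity is normalized as 100×(sample−DMSO)/(3 μM co-corrector alone−DMSO).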

[3] = HRP-tagged ΔF508-CFTR expressing CFBE41o- cells, compound alone (intrinsic corrector capacity), 20 hours at 33° C.
[4] = HRP-tagged ΔF508-CFTR expressing CFBE41o- cells, compound alone (intrinsic corrector capacity), 20 hours at 33° C., read-out: EC50
[5] = HRP-tagged ΔF508-CFTR CFBE cells, in the presence of 3 μM co-corrector
[6] = HRP-tagged ΔF508-CFTR CFBE cells, in the presence of 3 μM co-corrector, read-out: EC50

T1 sequence (P13569 with tags, fused parts or gaps DEL508-508): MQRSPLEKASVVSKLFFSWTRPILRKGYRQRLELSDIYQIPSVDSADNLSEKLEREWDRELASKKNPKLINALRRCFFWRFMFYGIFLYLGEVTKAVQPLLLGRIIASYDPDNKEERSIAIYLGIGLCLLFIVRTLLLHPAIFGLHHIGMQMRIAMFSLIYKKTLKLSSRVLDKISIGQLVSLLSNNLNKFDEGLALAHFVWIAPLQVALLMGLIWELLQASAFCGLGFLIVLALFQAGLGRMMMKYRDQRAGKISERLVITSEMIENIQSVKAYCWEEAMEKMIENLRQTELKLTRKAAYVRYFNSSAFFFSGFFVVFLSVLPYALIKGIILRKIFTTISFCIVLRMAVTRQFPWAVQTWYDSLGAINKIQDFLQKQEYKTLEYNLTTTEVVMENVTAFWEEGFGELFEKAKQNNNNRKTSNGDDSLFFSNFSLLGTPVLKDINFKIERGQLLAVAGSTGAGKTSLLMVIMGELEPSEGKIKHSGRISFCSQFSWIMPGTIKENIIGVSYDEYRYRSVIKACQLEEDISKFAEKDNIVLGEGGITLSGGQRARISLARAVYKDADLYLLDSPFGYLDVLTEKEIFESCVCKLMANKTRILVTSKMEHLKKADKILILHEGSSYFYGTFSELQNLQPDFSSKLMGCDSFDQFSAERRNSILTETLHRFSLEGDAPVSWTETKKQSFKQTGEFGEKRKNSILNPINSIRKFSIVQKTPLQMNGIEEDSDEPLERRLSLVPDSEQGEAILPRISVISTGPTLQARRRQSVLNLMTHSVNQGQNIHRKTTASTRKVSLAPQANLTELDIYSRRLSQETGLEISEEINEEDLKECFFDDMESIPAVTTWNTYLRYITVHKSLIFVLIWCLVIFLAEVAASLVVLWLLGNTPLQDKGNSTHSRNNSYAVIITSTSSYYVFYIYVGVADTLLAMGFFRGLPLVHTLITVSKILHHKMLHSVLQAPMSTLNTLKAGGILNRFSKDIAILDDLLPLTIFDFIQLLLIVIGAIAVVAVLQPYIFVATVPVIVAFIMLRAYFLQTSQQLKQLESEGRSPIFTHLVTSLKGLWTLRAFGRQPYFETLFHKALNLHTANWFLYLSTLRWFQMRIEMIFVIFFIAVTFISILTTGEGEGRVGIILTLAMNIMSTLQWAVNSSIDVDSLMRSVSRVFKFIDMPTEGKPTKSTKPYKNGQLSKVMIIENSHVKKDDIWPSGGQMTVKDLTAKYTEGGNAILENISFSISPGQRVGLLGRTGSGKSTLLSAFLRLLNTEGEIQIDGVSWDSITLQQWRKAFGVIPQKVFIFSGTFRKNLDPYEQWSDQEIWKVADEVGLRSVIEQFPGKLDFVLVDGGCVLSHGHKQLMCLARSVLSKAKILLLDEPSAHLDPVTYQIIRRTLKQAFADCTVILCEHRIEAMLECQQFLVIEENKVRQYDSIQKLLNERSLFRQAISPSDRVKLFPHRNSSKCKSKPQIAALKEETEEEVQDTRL

SMILES | % Activation [1, 3] [%] | pEC50 [1, 4] | % Activation [2, 5] [%] | pEC50 [2, 6] | pEC50 [1] | pEC50 [2]
COCC1CCN(c2cc(C(=O)NS(=O)(=O)CC(=O)OC)nc3c2c(C2CCC2)nn3-c2ccccc2)CC1 [Compound 376, methyl ({3-cyclobutyl-4-[4-(methoxymethyl)piperidin-1-yl]-1-phenyl-1H-pyrazolo[3,4-b]pyridine-6-carbonyl}sulfamoyl)acetate] | 355.7 | 6.93 | 496.8 | 7.29 |  | 
COCC1CCN(c2cc(C(=O)NS(=O)(=O)C3CCN(C(=O)OCc4ccccc4)C3)nc3c2c(C2CCC2)nn3-c2ccccc2)CC1 (stereo not drawn) [Compound 377, benzyl 3-({3-cyclobutyl-4-[4-(methoxymethyl)piperidin-1-yl]-1-phenyl-1H-pyrazolo[3,4-b]pyridine-6-carbonyl}sulfamoyl)pyrrolidine-1-carboxylate] | 261.3 | 6.89 | 485.55 | 6.99 |  | 
CC(C)c1nn(-c2ccc(F)cc2)c2nc(C(=O)NS(C)(=O)=O)cc(C3CCN(C(=O)OC(C)(C)C)CC3)c12 [Compound 378, tert-butyl 4-[1-(4-fluorophenyl)-6-[(methanesulfonyl)carbamoyl]-3-(propan-2-yl)-1H-pyrazolo[3,4-b]pyridin-4-yl]piperidine-1-carboxylate] | 160 | 5.88 | 318.6 | 6.18 |  | 
O=C(NS(=O)(=O)N1CCOCC1)c1cc(N2CCC(CN3CCCC3)CC2)c2c(C3CCC3)nn(-c3ccccc3)c2n1 [Compound 380, 3-cyclobutyl-N-(morpholine-4-sulfonyl)-1-phenyl-4-{4-[(pyrrolidin-1-yl)methyl]piperidin-1-yl}-1H-pyrazolo[3,4-b]pyridine-6-carboxamide] | 131.7 |  | 309.17 |  | 6.55 | 6.90
O=C(NS(=O)(=O)N1CCOCC1)c1cc(N2CCC(N3CCOCC3)CC2)c2c(C3CCC3)nn(-c3ccccc3)c2n1 [Compound 383, 3-cyclobutyl-N-(morpholine-4-sulfonyl)-4-[4-(morpholin-4-yl)piperidin-1-yl]-1-phenyl-1H-pyrazolo[3,4-b]pyridine-6-carboxamide] | 202.9 |  | 412.20 |  |  | 
COCC1CCN(c2cc(C(=O)NS(=O)(=O)CC(N)=O)nc3c2c(C2CCC2)nn3-c2ccccc2)CC1 [Compound 384, N-(2-amino-2-oxoethanesulfonyl)-3-cyclobutyl-4-[4-(methoxymethyl)piperidin-1-yl]-1-phenyl-1H-pyrazolo[3,4-b]pyridine-6-carboxamide] | 228 | 5.54 | 391.35 | 5.84 |  | 
COCC1CCN(c2cc(C(=O)NS(=O)(=O)CCNC(C)=O)nc3c2c(C2CCC2)nn3-c2ccccc2)CC1 [Compound 386, N-(2-acetamidoethanesulfonyl)-3-cyclobutyl-4-[4-(methoxymethyl)piperidin-1-yl]-1-phenyl-1H-pyrazolo[3,4-b]pyridine-6-] | 237.85 | 5.67 | 385.05 | 6.16 |  | 
COCC1CCN(c2cc(C(=O)NS(=O)(=O)C3CCNC3)nc3c2c(C2CCC2)nn3-c2ccccc2)CC1 (stereo not drawn) [Compound 387, 3-cyclobutyl-4-[4-(methoxymethyl)piperidin-1-yl]-1-phenyl-N-(pyrrolidine-3-sulfonyl)-1H-pyrazolo[3,4-b]pyridine-6-carboxamide] | 60.58 | 6.34 | 168.9 | 6.79 |  | 
COCC1CCN(c2cc(C(=O)NS(=O)(=O)N3CCC(N4CCCC4)CC3)nc3c2c(C2CCC2)nn3-c2ccccc2)CC1 [Compound 388, 3-cyclobutyl-4-[4-(methoxymethyl)piperidin-1-yl]-1-phenyl-N-[4-(pyrrolidin-1-yl)piperidine-1-sulfonyl]-1H-pyrazolo[3,4-b]pyridine-6-carboxamide] | 192.8 |  | 364.5 |  | 6.66 | 6.71
COCC1CCN(c2cc(C(=O)NS(=O)(=O)N3CCC[C@H]3C(=O)N3CCN(C)CC3)nc3c2c(C2CCC2)nn3-c2ccccc2)CC1 [Compound 389, 3-cyclobutyl-4-[4-(methoxymethyl)piperidin-1-yl]-N-[(2S)-2-(4-methylpiperazine-1-carbonyl)pyrrolidine-1-sulfonyl]-1-phenyl-1H-pyrazolo[3,4-b]pyridine-6-carboxamide] | 165 | 6.25 | 305.1 | 6.53 |  | 
COCC1CCN(c2cc(C(=O)NS(=O)(=O)N3CCC(N4CCC[C@H]4COC)CC3)nc3c2c(C2CCC2)nn3-c2ccccc2)CC1 [Compound 390, 3-cyclobutyl-4-[4-(methoxymethyl)piperidin-1-yl]-N-{4-[(2S)-2-(methoxymethyl)pyrrolidin-1-yl]piperidine-1-sulfonyl}-1-phenyl-1H-pyrazolo[3,4-b]pyridine-6-carboxamide] | 188.2 | 6.75 | 350.17 | 6.85 |  | 
CCCN(C)S(=O)(=O)NC(=O)c1cc(N2CCC(COC)CC2)c2c(C3CCC3)nn(-c3ccccc3)c2n1 [Compound 391, 3-cyclobutyl-4-[4-(methoxymethyl)piperidin-1-yl]-N-[methyl(propyl)sulfamoyl]-1-phenyl-1H-pyrazolo[3,4-b]pyridine-6-carboxamide] | 247.7 | 7.11 | 441.15 | 7.07 |  | 
CCCN(CC)S(=O)(=O)NC(=O)c1cc(N2CCC(COC)CC2)c2c(C3CCC3)nn(-c3ccccc3)c2n1 [Compound 392, 3-cyclobutyl-N-[ethyl(propyl)sulfamoyl]-4-[4-(methoxymethyl)piperidin-1-yl]-1-phenyl-1H-pyrazolo[3,4-b]pyridine-6-carboxamide] | 240.05 | 6.82 | 421.4 | 6.86 |  | 
CCOC(=O)N1CCC(NS(=O)(=O)NC(=O)c2cc(N3CCC(COC)CC3)c3c(C4CCC4)nn(-c4ccccc4)c3n2)CC1 [Compound 393, ethyl 4-[({3-cyclobutyl-4-[4-(methoxymethyl)piperidin-1-yl]-1-phenyl-1H-pyrazolo[3,4-b]pyridine-6-carbonyl}sulfamoyl)amino]piperidine-1-carboxylate] | 423.6 | 7.29 | 533.65 | 7.68 |  | 
COCC1CCN(c2cc(C(=O)NS(=O)(=O)N3CCCN(C(C)=O)CC3)nc3c2c(C2CCC2)nn3-c2ccccc2)CC1 [Compound 394, N-(4-acetyl-1,4-diazepane-1-sulfonyl)-3-cyclobutyl-4-[4-(methoxymethyl)piperidin-1-yl]-1-phenyl-1H-pyrazolo[3,4-b]pyridine-6-carboxamide] | 194.35 | 7.00 | 366.87 | 7.32 |  | 
COCC1CCN(c2cc(C(=O)NS(=O)(=O)N3CCC(N4CCC[C@@H]4COC)CC3)nc3c2c(C2CCC2)nn3-c2ccccc2)CC1 [Compound 395, 3-cyclobutyl-4-[4-(methoxymethyl)piperidin-1-yl]-N-{4-[(2R)-2-(methoxymethyl)pyrrolidin-1-yl]piperidine-1-sulfonyl}-1-phenyl-1H-pyrazolo[3,4-b]pyridine-6-carboxamide] | 209.2 | 6.32 | 327.95 | 6.90 |  | 
COCC1CCN(c2cc(C(=O)NS(=O)(=O)N3CCC(C(=O)N4CCN(C)CC4)CC3)nc3c2c(C2CCC2)nn3-c2ccccc2)CC1 [Compound 398, 3-cyclobutyl-4-[4-(methoxymethyl)piperidin-1-yl]-N-[4-(4-methylpiperazine-1-carbonyl)piperidine-1-sulfonyl]-1-phenyl-1H-pyrazolo[3,4-b]pyridine-6-carboxamide] | 173.7 | 6.74 | 324.03 | 7.13 |  | 
COCC1CCN(c2cc(C(=O)NS(=O)(=O)C3CC3)nc3c2c(C2CCC2)nn3-c2ccccc2)CC1 [Compound 401, 3-cyclobutyl-N-(cyclopropanesulfonyl)-4-[4-(methoxymethyl)piperidin-1-yl]-1-phenyl-1H-pyrazolo[3,4-b]pyridine-6-carboxamide] | 400.8 | 6.98 | 595.1 | 7.21 |  | 
CCS(=O)(=O)NC(=O)c1cc(N2CCC(COC)CC2)c2c(C3CCC3)nn(-c3ccccc3)c2n1 [Compound 403, 3-cyclobutyl-N-(ethanesulfonyl)-4-[4-(methoxymethyl)piperidin-1-yl]-1-phenyl-1H-pyrazolo[3,4-b]pyridine-6-carboxamide] | 389.2 | 7.52 | 507.35 | 7.59 |  | 
COCCS(=O)(=O)NC(=O)c1cc(N2CCC(N3CCOCC3)CC2)c2c(C3CCC3)nn(C3CCCCC3)c2n1 [Compound 419, 3-cyclobutyl-1-cyclohexyl-N-(2-methoxyethanesulfonyl)-4-[4-(morpholin-4-yl)piperidin-1-yl]-1H-pyrazolo[3,4-b]pyridine-6-carboxamide] | 293 | 6.35 | 505.65 | 6.56 |  | 
